Results as given in patent US9090600B2, “Fungicidal 4-substituted-3-{phenyl[(heterocyclylmethoxy)imino]methyl}-1,2,4-oxadizol-5(4H)-one derivatives” (BAYER INTELLECTUAL PROPERTY GMBH, priority 2011, dated 2015).
Marks after values point to notes of the source that are not given here.

Legend:
[1] = pH 2.7
[2] = system: Phytophthora infestans; assay type: in vivo; details: tomato plants, spray, 500 ppm, grading 5 days after contamination

Row | SMILES | LogP [1] | Eff. % [2]
1 | Cn1c(/C(=N\OCc2cccc(NC(=O)OCC(C)(C)c3ccccc3)n2)c2ccccc2)noc1=O [Example 79] | 4.71 [a] | 88%
2 | Cn1c(/C(=N\OCc2csc(NC(=O)c3ccccc3Br)n2)c2ccccc2)noc1=O [Example 81] | 3.51 [a] | 78%
3 | Cc1ccccc1OC(C)C(=O)Nc1nc(CO/N=C(/c2ccccc2)c2noc(=O)n2C)cs1 (stereo not drawn) [Example 82] | 4.12 [a] | 99%
4 | Cc1cccc(/C(=N/OCc2cccc(N(C(=O)OC(C)(C)C)C(=O)OC(C)(C)C)n2)c2noc(=O)n2C)c1 [Example 87] | 4.77 [a] | 95%
5 | Cn1c(/C(=N\OCc2cccc(NC(=O)OCCc3ccc(F)cc3)n2)c2ccccc2)noc1=O [Example 89] | 4.19 [a] | 99%
6 | COc1ccccc1C(=O)Nc1nc(CO/N=C(/c2ccccc2)c2noc(=O)n2C)cs1 [Example 91] | 3.71 [a] | 85%
7 | CCCCOC(C)C(=O)Nc1cccc(CO/N=C(/c2ccccc2)c2noc(=O)n2C)n1 (stereo not drawn) [Example 93] | 4.3 [a] | 99%
8 | CCCCCCCCC(=O)Nc1cccc(CO/N=C(/c2ccccc2)c2noc(=O)n2C)n1 [Example 98] | 5.11 [a] | 99%
9 | COc1ccc(CC(=O)Nc2cccc(CO/N=C(/c3cccc(OC)c3)c3noc(=O)n3C)n2)cc1 [Example 101] | 3.51 [a] | 97%
10 | Cn1c(/C(=N\OCc2csc(NC(=O)OC3CCCC3)n2)c2ccccc2)noc1=O [Example 103] | 3.76 [a] | 80%
11 | Cn1c(/C(=N\OCc2cccc(NC(=O)OCCc3ccccc3Cl)n2)c2ccccc2)noc1=O [Example 106] | 4.56 [a] | 75%
12 | CCCCCCOC(=O)Nc1cccc(CO/N=C(/c2ccccc2)c2noc(=O)n2C)n1 [Example 107] | 4.85 [a] | 100%
13 | Cn1c(/C(=N\OCc2cccc(NC(=O)OC3CCCC3)n2)c2ccccc2)noc1=O [Example 110] | 4.09 [a] | 98%
14 | COc1cccc(/C(=N/OCc2cccc(NC(=O)OC3CCCCC3)n2)c2noc(=O)n2C)c1 [Example 112] | 4.49 [a] | 73%
15 | Cn1c(/C(=N\OCc2cccc(NC(=O)c3ccccc3F)n2)c2ccccc2)noc1=O [Example 114] | 3.73 [a] | 100%
16 | Cn1c(/C(=N\OCc2cccc(NC(=O)C3CCC3)n2)c2ccccc2)noc1=O [Example 118] | 3.27 [a] | 100%
17 | COC(=O)C(C)OC(=O)Nc1cccc(CO/N=C(/c2ccccc2)c2noc(=O)n2C)n1 (stereo not drawn) [Example 119] | 3.17 [a] | 97%
18 | Cn1c(/C(=N\OCc2csc(NC(=O)COc3ccc(Cl)cc3Cl)n2)c2ccccc2)noc1=O [Example 123] | 4.23 [a] | 98%
19 | C#CCC(C)OC(=O)Nc1cccc(CO/N=C(/c2ccccc2)c2noc(=O)n2CC)n1 (stereo not drawn) [Example 127] | 3.81 [a] | 100%
20 | CCC(C)C(=O)Nc1cccc(CO/N=C(/c2ccccc2)c2noc(=O)n2C)n1 (stereo not drawn) [Example 132] | 3.41 [a] | 97%
21 | Cc1ccccc1CCOC(=O)Nc1cccc(CO/N=C(/c2ccccc2)c2noc(=O)n2C)n1 [Example 133] | 4.51 [a] | 88%
22 | Cn1c(/C(=N\OCc2cccc(NC(=O)c3ccco3)n2)c2ccccc2)noc1=O [Example 134] | 3.13 [a] | 99%
23 | Cn1c(/C(=N\OCc2cccc(NC(=O)C3(C)CC3)n2)c2ccccc2)noc1=O [Example 137] | 3.31 [a] | 98%

Row | SMILES | LogP [1] | Eff. % [2]
24 | Cn1c(/C(=N\OCc2cccc(NC(=O)Oc3ccccc3)n2)c2ccccc2)noc1=O [Example 138] | 3.73 [a] | 97%
25 | Cn1c(/C(=N\OCc2cccc(NC(=O)C(C)(C)C)n2)c2cccc(F)c2)noc1=O [Example 139] | 3.61 [a] | 100%
26 | Cc1cccc(/C(=N/OCc2cccc(NC(=O)OC(C)(C)C)n2)c2noc(=O)n2C)c1 [Example 142] | 4.34 [a] | 100%
27 | Cn1c(/C(=N\OCc2csc(NC(=O)c3cccc(I)c3)n2)c2ccccc2)noc1=O [Example 143] | 4.19 [a] | 75%
28 | Cc1ccc(C(=O)Nc2cccc(CO/N=C(/c3ccccc3)c3noc(=O)n3C)n2)cc1 [Example 144] | 3.85 [a] | 95%
29 | CC(COC(=O)Nc1cccc(CO/N=C(/c2ccccc2)c2noc(=O)n2C)n1)c1ccccc1 (stereo not drawn) [Example 145] | 4.46 [a] | 83%
30 | Cn1c(/C(=N\OCc2cccc(NC(=O)CC34CC5CC(CC(C5)C3)C4)n2)c2ccccc2)noc1=O [Example 146] | 5.08 [a] | 93%
31 | Cn1c(/C(=N\OCc2cccc(NC(=O)C3CCCCC3)n2)c2ccccc2)noc1=O [Example 147] | 3.92 [a] | 100%
32 | CC(C)=CCC(=O)Nc1cccc(CO/N=C(/c2ccccc2)c2noc(=O)n2C)n1 [Example 153] | 3.59 [a] | 100%
33 | CC(Oc1cccc(Br)c1)C(=O)Nc1nc(CO/N=C(/c2ccccc2)c2noc(=O)n2C)cs1 (stereo not drawn) [Example 155] | 4.17 [a] | 92%
34 | CCCCCOC(=O)Nc1cccc(CO/N=C(/c2ccc(F)cc2)c2noc(=O)n2C)n1 [Example 161] | 4.51 [a] | 92%
35 | Cn1c(/C(=N\OCc2cccc(NC(=O)C3(c4ccccc4)CC3)n2)c2ccccc2)noc1=O [Example 165] | 4.43 [a] | 70%
36 | Cc1ccoc1C(=O)Nc1cccc(CO/N=C(/c2ccccc2)c2noc(=O)n2C)n1 [Example 170] | 3.71 [a] | 100%
37 | COc1ccccc1CCOC(=O)Nc1cccc(CO/N=C(/c2ccccc2)c2noc(=O)n2C)n1 [Example 175] | 4.31 [a] | 93%
38 | CCCCC(=O)Nc1cccc(CO/N=C(/c2ccccc2)c2noc(=O)n2CC)n1 [Example 176] | 3.76 [a] | 100%
39 | CC(C)C(=O)Nc1cccc(CO/N=C(/c2ccccc2)c2noc(=O)n2C)n1 [Example 177] | 3.11 [a] | 100%
40 | Cn1c(/C(=N\OCc2cccc(NC(=O)c3ccccc3Cl)n2)c2ccccc2)noc1=O [Example 178] | 3.64 [a] | 99%
41 | CC(C)CCOC(=O)Nc1cccc(CO/N=C(/c2ccccc2)c2noc(=O)n2C)n1 [Example 182] | 4.39 [a] | 100%
42 | COc1ccccc1CCC(=O)Nc1cccc(CO/N=C(/c2ccccc2)c2noc(=O)n2C)n1 [Example 184] | 3.87 [a] | 99%
43 | Cn1c(/C(=N\OCc2cccc(NC(=O)OCCc3ccccc3F)n2)c2ccccc2)noc1=O [Example 186] | 4.21 [a] | 83%
44 | Cn1c(/C(=N\OCc2cccc(NC(=O)c3ccc(Br)cc3)n2)c2ccccc2)noc1=O [Example 187] | 4.14 [a] | 80%
45 | CSCCC(=O)Nc1cccc(CO/N=C(/c2ccccc2)c2noc(=O)n2C)n1 [Example 188] | 3.09 [a] | 99%
